According to US10981932B2, “Macrocyclic indole derivatives” (Bayer Aktiengesellschaft, priority 2016, dated 2021):
Structures can show the parent of a compound that is named as a salt. Where two headings read alike, the source gives them in different places.

Key:
[1] = system: SUDHL10; assay: Anti-proliferative effect (CellTiter-Glo, 72 h), SUDHL10; type: cell-based; conditions: SUDHL10 cells, antiproliferation, median, read-out: Antiproli SUDHL10 [M] (median)
Method in brief: (§1)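 CellTiter-Glo luminescence readout of viability, taken on a time-zero plate at day 0 and on treated plates after 72 h incubation at 37 °C in a humidified incubator. Reagent incubation 10 min before reading.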

[2] = system: SUDHL10; assay: Induction of cytotoxicity (CellTiter-Glo, 5 h), SUDHL10
[3] = system: A2780; assay: Anti-proliferative effect (CellTiter-Glo, 72 h), A2780; type: cell-based; conditions: A2780 cells, median, read-out: IC50 antiproliferation assay A2780 [M] (median)
Method in brief: as §1

[4] = molecular target: MCL-1 (Homo sapiens, UniProt Q07820); assay: Protein-protein interaction assay MCL-1/Noxa BH3 peptide (MCL-1 assay), TR-FRET; type: binding; conditions: MBP-MCL-1 / Noxa BH3-derived peptide, median
Method in brief: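 MBP-MCL-1 (1 nM final) was preincubated 10 min at 22 °C with compounds (11 concentrations, 0.1 nM–20 μM, duplicates) in Tris pH 7 buffer with NaCl, KF, Tween-20, DTT and BGG. After 1 h at 22 °C in the dark plus overnight at 4 °C, anti-MBP Eu-cryptate/streptavidin-XL665 TR-FRET was read; IC50 came from a 4-parameter fit.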

[5] = system: SUDHL10; assay: Induction of caspase-3/7 activity (Caspase-Glo 3/7), SUDHL10; type: cell-based; conditions: caspase-3/7 induction, SUDHL10 cells, 3 h treatment, median
Method in brief: (§2)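 Caspase-Glo 3/7 luminescence measured after 3 h compound exposure at 37 °C in SUDHL10 and SUDHL5 cells. EC50 values come from background-corrected signals, with curve bottom set to 1 and plateau set to maximal induction by the reference compound.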

[6] = system: SUDHL5; assay: Anti-proliferative effect (CellTiter-Glo, 72 h), SUDHL5; type: cell-based; conditions: SUDHL5 cells, antiproliferation, median, read-out: Antiproli SUDHL5 [M] (median)
Method in brief: as §1

[7] = system: SUDHL5; assay: Induction of cytotoxicity (CellTiter-Glo, 5 h), SUDHL5
[8] = system: SUDHL5; assay: Induction of caspase-3/7 activity (Caspase-Glo 3/7), SUDHL5; type: cell-based; conditions: caspase-3/7 induction, SUDHL5 cells, 3 h treatment, median
Method in brief: as §2

[9] = Homo sapiens, SU-DHL10, 72 h, 72 h
[10] = Homo sapiens, SU-DHL10, 5 h, read-out: Cytotox SUDHL10 [M] (median), SUDHL10 cells, cytotoxicity induction, CellTiter-Glo, 5 h, median
[11] = Homo sapiens, SU-DHL-5, 72 h, 72 h
[12] = Homo sapiens, SU-DHL-5, 5 h, read-out: Cytotox SUDHL5 [M] (median), SUDHL5 cells, cytotoxicity induction, CellTiter-Glo, 5 h, median
[13] = read-out: Cytotox SUDHL10 [M] (median), SUDHL10 cells, cytotoxicity induction, CellTiter-Glo, 5 h incubation, median
[14] = read-out: Cytotox SUDHL5 [M] (median), SUDHL5 cells, cytotoxicity induction, CellTiter-Glo, 5 h incubation, median

MCL-1, sequence (Q07820 whole entry): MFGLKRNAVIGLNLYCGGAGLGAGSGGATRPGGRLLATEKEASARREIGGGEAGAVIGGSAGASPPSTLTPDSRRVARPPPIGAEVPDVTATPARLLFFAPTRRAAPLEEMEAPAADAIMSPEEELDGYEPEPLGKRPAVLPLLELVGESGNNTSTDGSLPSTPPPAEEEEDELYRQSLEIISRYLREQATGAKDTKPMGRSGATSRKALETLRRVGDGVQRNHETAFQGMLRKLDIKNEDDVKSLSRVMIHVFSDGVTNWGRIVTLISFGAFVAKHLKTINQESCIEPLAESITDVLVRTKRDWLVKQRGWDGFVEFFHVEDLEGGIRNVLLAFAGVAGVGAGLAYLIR

| SMILES | IC50 [1, 9] | IC50 ([3]; Homo sapiens, A2780, 72 h) | IC50 [4] | EC50 ([5]; Homo sapiens, SU-DHL10, 3 h) | IC50 [6, 11] | EC50 ([8]; Homo sapiens, SU-DHL-5, 3 h) | IC50 [3] | EC50 [5] | EC50 [8] | IC50 ([1]; 72 h incubation) | IC50 ([6]; 72 h incubation) | IC50 [2, 10] | IC50 [7, 12] | IC50 ([1]; 72 h) | IC50 ([2]; read-out: Cytotox SUDHL10 [M] (median), SUDHL10 cells, cytotoxicity induction, CellTiter-Glo, 5 h, median) | IC50 ([6]; 72 h) | IC50 ([7]; read-out: Cytotox SUDHL5 [M] (median), SUDHL5 cells, cytotoxicity induction, CellTiter-Glo, 5 h, median) | IC50 [2, 13] | IC50 [7, 14] |
| --- | --- | --- | --- | --- | --- | --- | --- | --- | --- | --- | --- | --- | --- | --- | --- | --- | --- | --- | --- |
| Cn1nc(CN2CC3(COC3)C2)c2c1COCCCCn1c(C(=O)O)c(CCCOc3cccc4ccccc34)c3cccc-2c31 (single isomer, unassigned; enantiomer 1) [Example 344, 1-methyl-7-[3-(naphthalen-1-yloxy)propyl]-3-(2-oxa-6-azaspiro[3.3]hept-6-ylmethyl)-1,10,11,12,13,15-hexahydropyrazolo[4′,3′:9,10][1,6]oxazacycloundecino[8,7,6-hi]indole-8-carboxylic acid-N-ethylethanamine Salt (Enantiomer 1)] |  |  | 0.433 µM |  |  |  | > 3.3e-05 M | > 33 µM | > 33 µM |  |  |  |  | 1.44e-05 M | > 3.3e-05 M | 2.08e-05 M | > 3.3e-05 M |  |  |
| Cc1nn(C)c2c1-c1cccc3c(CCCOc4cccc5c4CCCC5)c(C(=O)O)n(c13)CCCCOC2 (single isomer, unassigned; enantiomer 2) [Example 008, 1,3-dimethyl-7-[3-(5,6,7,8-tetrahydronaphthalen-1-yloxy)propyl]-1,10,11,12,13,15-hexahydropyrazolo[4′3′:9,10][1,6]oxazacycloundecino[8,7,6-hi]indole-8-carboxylic Acid-N-ethylethanamine Salt (Enantiomer 2)] |  |  | 0.126 µM |  |  |  | 2.46e-05 M | > 33 µM | > 33 µM | 1.55e-05 M | 2.59e-05 M |  |  |  |  |  |  | > 3.3e-05 M | > 3.3e-05 M |
| Cc1cc(OCCCc2c(C(=O)O)n3c4c(cccc24)-c2c(C)nn(C)c2COCCCC3)cc(C)c1Cl (single isomer, unassigned; enantiomer 2) [Example 011, 7-[3-(4-chloro-3,5-dimethylphenoxy)propyl]-1,3-dimethyl-1,10,11,12,13,15-hexahydropyrazolo[4′,3′:9,10][1,6]oxazacycloundecino[8,7,6-hi]indole-8-carboxylic Acid-N-ethylethanamine Salt (Enantiomer 2)] |  |  | 0.162 µM |  |  |  | 1.58e-05 M | > 33 µM | > 33 µM | 1.18e-05 M | 2.02e-05 M |  |  |  |  |  |  | > 3.3e-05 M | > 3.3e-05 M |
| Cc1nn(C)c2c1-c1cccc3c(CCCOc4cccc5cc(F)ccc45)c(C(=O)O)n(c13)CCCCOC2 (single isomer, unassigned; enantiomer 2) [Example 020, 7-{3-[(6-fluoronaphthalen-1-yl)oxy]propyl}-1,3-dimethyl-1,10,11,12,13,15-hexahydropyrazolo[4′,3′:9,10][1,6]oxazacycloundecino[8,7,6-hi]indole-8-carboxylic Acid-N-ethylethanamine Salt (Enantiomer 2)] |  |  | 0.0646 µM |  |  |  | 1.37e-05 M | > 33 µM | > 33 µM | 6.75e-06 M | 1.72e-05 M |  |  |  |  |  |  | > 3.3e-05 M | 2.31e-05 M |
| Cc1ccc2c(CCCOc3cccc4ccccc34)c(C(=O)O)n3c2c1-c1c(C)nn(C)c1COCCCC3 (single isomer, unassigned; enantiomer 2) [Example 029, 1,3,4-trimethyl-7-[3-(naphthalen-1-yloxy)propyl]-1,10,11,12,13,15-hexahydropyrazolo[4′,3′:9,10][1,6]oxazacycloundecino[8,7,6-hi]indole-8-carboxylic acid-N-ethylethanamine Salt (Enantiomer 2)] |  |  | 0.22 µM |  |  |  | 2.01e-05 M | > 33 µM | > 33 µM | 1.38e-05 M | 1.82e-05 M |  |  |  |  |  |  | > 3.3e-05 M | > 3.3e-05 M |
| Cc1cc2c(OCCCc3c(C(=O)O)n4c5c(cccc35)-c3c(C)nn(C)c3COCCCC4)cccc2cc1F (single isomer, unassigned; enantiomer 2) [Example 051, 7-{3-[(6-fluoro-7-methylnaphthalen-1-yl)oxy]propyl}-1,3-dimethyl-1,10,11,12,13,15-hexahydropyrazolo[4′,3′:9,10][1,6]oxazacycloundecino[8,7,6-hi]indole-8-carboxylic acid-N-ethylethanamine Salt (Enantiomer 2)] |  |  | 0.0737 µM |  |  |  | 1.53e-05 M | > 33 µM | > 33 µM | 4.39e-06 M | 8.91e-06 M |  |  |  |  |  |  | 2.02e-05 M | 3e-05 M |
| Cc1c2c(nn1C)CN(C)CCCCn1c(C(=O)O)c(CCCOc3cccc4ccccc34)c3cccc-2c31 (single isomer, unassigned; enantiomer 2) [Example 069, 2,3,14-trimethyl-7-[3-(naphthalen-1-yloxy)propyl]-10,11,12,13,14,15-hexahydro-2H-pyrazolo[3′,4′:8,9][1,6]diazacycloundecino[10,11,1-hi]indole-8-carboxylic Acid (Enantiomer 2)] |  |  | 0.162 µM |  |  |  | > 3.3e-05 M | > 33 µM | > 33 µM | 2.11e-05 M | > 3.3e-05 M |  |  |  |  |  |  | > 3.3e-05 M | > 3.3e-05 M |

Second part, led by results:

| IC50 [1, 9] | IC50 ([3]; Homo sapiens, A2780, 72 h) | IC50 [4] | EC50 ([5]; Homo sapiens, SU-DHL10, 3 h) | IC50 [6, 11] | EC50 ([8]; Homo sapiens, SU-DHL-5, 3 h) | IC50 [3] | EC50 [5] | EC50 [8] | IC50 ([1]; 72 h incubation) | IC50 ([6]; 72 h incubation) | SMILES | IC50 [2, 10] | IC50 [7, 12] | IC50 ([1]; 72 h) | IC50 ([2]; read-out: Cytotox SUDHL10 [M] (median), SUDHL10 cells, cytotoxicity induction, CellTiter-Glo, 5 h, median) | IC50 ([6]; 72 h) | IC50 ([7]; read-out: Cytotox SUDHL5 [M] (median), SUDHL5 cells, cytotoxicity induction, CellTiter-Glo, 5 h, median) | IC50 [2, 13] | IC50 [7, 14] |
| --- | --- | --- | --- | --- | --- | --- | --- | --- | --- | --- | --- | --- | --- | --- | --- | --- | --- | --- | --- |
| > 3.3e-05 M | > 3.3e-05 M | 0.0219 µM | > 33 µM | 4.71e-06 M | 21.1 µM |  |  |  |  |  | CC(=O)NCc1nn(C)c2c1-c1cccc3c(CCCOc4cccc5ccccc45)c(C(=O)O)n(c13)CCCCOC2 (single isomer, unassigned; enantiomer 1) [Example 340, 3-[(acetylamino)methyl]-1-methyl-7-[3-(naphthalen-1-yloxy)propyl]-1,10,11,12,13,15-hexahydropyrazolo[4′3′:9,10][1,6]oxazacycloundecino[8,7,6-hi]indole-carboxylic Acid (Enantiomer 1)] | > 3.3e-05 M | 1.56e-05 M |  |  |  |  |  |  |
| 1.11e-06 M | 1.9e-05 M | 0.325 µM | > 33 µM | 1.92e-06 M | 29.7 µM |  |  |  |  |  | Cn1nc(COC(=O)NCC(F)(F)F)c2c1COCCCCn1c(C(=O)O)c(CCCOc3cccc4ccccc34)c3cccc-2c31 (single isomer, unassigned; enantiomer 1) [Example 343, 1-methyl-7-[3-(naphthalen-1-yloxy)propyl]-3-({[(2,2,2-trifluoroethyl)carbamoyl]oxy}methyl)-1,10,11,12,13,15-hexahydropyrazolo[4′,3′:9,10][1,6]oxazacycloundecino[8,7,6-hi]indole-8-carboxylic Acid (Enantiomer 1)] | > 3.3e-05 M | > 3.3e-05 M |  |  |  |  |  |  |
|  |  | 0.0342 µM |  |  |  | 2.06e-05 M | > 33 µM | > 33 µM | 1.17e-05 M | 2.73e-05 M | Cc1ccc2c(CCCOc3cccc4ccccc34)c(C(=O)O)n3c2c1-c1c(nn(C)c1C)COCCCC3 (single isomer, unassigned; enantiomer 2) [Example 077, 2,3,4-trimethyl-7-[3-(naphthalen-1-yloxy)propyl]-2,10,11,12,13,15-hexahydropyrazolo[4′,3′:9,10][1,6]oxazacycloundecino[8,7,6-hi]indole-8-carboxylic Acid (Enantiomer 2)] |  |  |  |  |  |  | > 3.3e-05 M | > 3.3e-05 M |
|  |  | 0.172 µM |  |  |  | 1.38e-05 M | > 33 µM | > 33 µM | 1.47e-05 M | 2.68e-05 M | CCn1nc2c(c1C1CC1)-c1cccc3c(CCCOc4cccc5ccccc45)c(C(=O)O)n(c13)CCCCOC2 (single isomer, unassigned; enantiomer 2) [Example 083, 3-cyclopropyl-2-ethyl-7-[3-(naphthalen-1-yloxy)propyl]-2,10,11,12,13,15-hexahydropyrazolo[4′,3′:9,10][1,6]oxazacycloundecino[8,7,6-hi]indole-8-carboxylic acid-N-ethylethanamine Salt (Enantiomer 2)] |  |  |  |  |  |  | > 3.3e-05 M | > 3.3e-05 M |
